≈ marks a conversion by molar mass, not a printed value. Where two headings read alike, the source gives them in different places.
How the values were obtained:
cytochrome bo3 [1] = molecular target: T1, cytochrome bo3 (Escherichia coli, UniProt P0ABI8); assay: Oxygen reductase activity assay (Clark-type electrode) with purified cytochrome bo3; assay type: biochemical, E. coli; conditions: for Rest activity in % of control activity bo3 / remaining activity at 250 µM: compound 250 µM, 200 µM ubiquinone-1, 5 mM dithiothreitol, 30 nM enzyme, RT, 100% = DMSO, mean ± S.E.M. (n=3); for remaining activity at 250 µM: read-out: Rest activity in % of control activity bo3; for Ki: final enzyme concentration 30 nM, EC50 of DoseResp fit, read-out: Ki^app bo3
T1 construct: made in house; host or cells: E. coli strain GO195 with pIRHisA
T1 sequence (P0ABJ3 whole entry): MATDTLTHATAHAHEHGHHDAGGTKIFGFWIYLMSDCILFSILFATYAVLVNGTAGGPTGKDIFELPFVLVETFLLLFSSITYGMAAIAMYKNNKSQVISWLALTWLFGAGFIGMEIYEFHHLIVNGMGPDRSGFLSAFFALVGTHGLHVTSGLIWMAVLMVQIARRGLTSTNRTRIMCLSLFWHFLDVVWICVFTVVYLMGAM
T1 sequence (P0ABJ1 25-315, further chain): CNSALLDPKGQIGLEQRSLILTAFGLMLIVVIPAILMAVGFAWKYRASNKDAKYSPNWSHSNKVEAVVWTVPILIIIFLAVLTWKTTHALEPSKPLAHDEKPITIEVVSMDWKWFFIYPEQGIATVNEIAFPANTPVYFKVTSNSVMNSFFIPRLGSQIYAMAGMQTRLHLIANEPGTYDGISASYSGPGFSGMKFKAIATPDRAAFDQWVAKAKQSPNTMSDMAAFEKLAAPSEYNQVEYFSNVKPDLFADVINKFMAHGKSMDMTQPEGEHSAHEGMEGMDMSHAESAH
T1 sequence (P0ABJ6 whole entry, further chain): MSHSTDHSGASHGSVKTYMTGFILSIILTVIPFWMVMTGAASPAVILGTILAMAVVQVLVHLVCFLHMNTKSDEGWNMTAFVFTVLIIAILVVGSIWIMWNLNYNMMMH
T1 sequence (P0ABI8 whole entry): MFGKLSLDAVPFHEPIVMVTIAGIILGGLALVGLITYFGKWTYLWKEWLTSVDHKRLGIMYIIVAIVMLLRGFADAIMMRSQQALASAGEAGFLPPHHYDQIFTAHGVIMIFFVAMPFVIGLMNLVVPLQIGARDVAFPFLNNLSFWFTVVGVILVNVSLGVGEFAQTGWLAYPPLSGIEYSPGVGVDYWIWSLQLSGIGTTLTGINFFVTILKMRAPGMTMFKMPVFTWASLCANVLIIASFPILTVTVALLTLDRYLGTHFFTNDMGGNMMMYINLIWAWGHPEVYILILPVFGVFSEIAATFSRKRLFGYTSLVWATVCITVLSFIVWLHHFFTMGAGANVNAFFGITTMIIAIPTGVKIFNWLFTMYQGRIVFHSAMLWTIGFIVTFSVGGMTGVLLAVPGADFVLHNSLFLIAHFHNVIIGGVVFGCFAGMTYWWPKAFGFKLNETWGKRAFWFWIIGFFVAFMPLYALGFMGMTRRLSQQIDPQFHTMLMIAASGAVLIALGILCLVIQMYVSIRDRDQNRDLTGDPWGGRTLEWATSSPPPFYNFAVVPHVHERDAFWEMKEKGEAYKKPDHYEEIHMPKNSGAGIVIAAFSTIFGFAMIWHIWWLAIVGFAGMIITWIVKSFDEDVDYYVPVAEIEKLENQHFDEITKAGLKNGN
Excerpt: (§1) To determine inhibition of our test set compounds and to assess the selectivity for bd-type oxidases we tested the inhibitory effect via […] determination of oxygen reduction using purified protein samples and ubiquinol-1 as electron donor. In this set-up, we kept the compound at a high molar excess compared to the protein. Figures 3 and 4 illustrate the screening results for cytochromes bd-I, bd-II and bo3, respectively. A comparative overview of all compounds is given in SI Table S1. […]. […] Among these compounds, AC2-11 has the strongest inhibitory effect on all three oxidases. […]. For AurC and its analogues it was reported that replacement of N–OH with an N–H group decreases the inhibitory potential only for cytochrome bo3, keeping a strong inhibitory effect on cytochrome bd[17]. Correspondingly, we observed a clear inhibition of cytochromes bd-I and bd-II with all AurD-type compounds. Regarding the long-chain derivatives AC4-11, AC2-11 and AD3-11, inhibition of cytochromes bd-I and bd-II and bo3 highlight the importance of the residue at the nitrogen group at position 1 for enzyme selectivity. […]. […] Regarding the cyclic derivatives, 7-MTHA causes only a minor inhibition of cytochrome bd-I. This effect could be due to the methoxy group in position 7 that introduces an additional polarity to the molecule. Steric hindrance as a consequence of the third ring structure is less likely, because AD5-cyclo is bulkier and reduces activity < 10% of cytochromes bd-I and bd-II.
(§2) Oxygen reductase activity was measured as oxygen consumption rate of purified protein by OX-MR Clark-type oxygen electrode linked to a PA 2000 picoammeter and to the ADC-216 AD-converter. Data recording with SensorTrace Basic 2.1 software (all Unisense, Denmark). Measurements were performed at RT in stirred 2 ml—glass vials with a total reaction volume of 600 µl. Oxygen consumption was initiated by adding 30 nM (bd-I, bo3) or 120 nM (bd-II) of the respective enzyme to the equilibrated mixture containing 20 mM NaPi (pH 8.0), 50 mM NaCl, 0.02% DDM, 5 mM Dithiothreitol (DTT) and 200 µM Ubiquinone-1 (2,3-Dimethoxy-5-methyl-6-(3-methyl-2-buten-1-yl)-1,4-benzoquinone). A 10 min equilibration period was implemented prior to enzyme addition. Inhibition experiments were performed with 250 µM of the respective compound from 20 mM stock solution in DMSO before equilibration. Data analysis and visualization via Origin Lab Pro 9.5 (Additive GmbH, Germany) Data analysis included an unpaired, two-sided t-test of two samples to check that given residual activities were sufficiently different between proteins (at significance levels p < 0.05, 0.01 or 0.001). HQNO (2-heptyl-4-quinolinol 1-oxide) was purchased from biomol GmbH, Hamburg. […]. The Ki^app value was adopted as the EC50 from the sigmoidal DoseRespFit. Further information can be found in Supporting Information Figures S2 to S5.

cytochrome bd-I = molecular target: T2, cytochrome bd-I (Escherichia coli, UniProt P0ABJ9); assay: Oxygen reductase activity assay (Clark-type electrode) with purified cytochrome bd-I; assay type: biochemical, E. coli; conditions: for Rest activity in % of control activity bd-I / remaining activity at 250 µM: compound 250 µM, 200 µM ubiquinone-1, 5 mM dithiothreitol, 30 nM enzyme, RT, 100% = DMSO, mean ± S.E.M. (n=3); for remaining activity at 250 µM: read-out: Rest activity in % of control activity bd-I; for Ki: final enzyme concentration 30 nM, inhibitor concentration at 50% residual oxygen reductase activity (EC50 of DoseResp fit), read-out: Ki^app bd-I
T2 construct: made in house; host or cells: E. coli C43 (DE3) Δ bo3 (CLY)
T2 sequence (P0ABJ9 whole entry): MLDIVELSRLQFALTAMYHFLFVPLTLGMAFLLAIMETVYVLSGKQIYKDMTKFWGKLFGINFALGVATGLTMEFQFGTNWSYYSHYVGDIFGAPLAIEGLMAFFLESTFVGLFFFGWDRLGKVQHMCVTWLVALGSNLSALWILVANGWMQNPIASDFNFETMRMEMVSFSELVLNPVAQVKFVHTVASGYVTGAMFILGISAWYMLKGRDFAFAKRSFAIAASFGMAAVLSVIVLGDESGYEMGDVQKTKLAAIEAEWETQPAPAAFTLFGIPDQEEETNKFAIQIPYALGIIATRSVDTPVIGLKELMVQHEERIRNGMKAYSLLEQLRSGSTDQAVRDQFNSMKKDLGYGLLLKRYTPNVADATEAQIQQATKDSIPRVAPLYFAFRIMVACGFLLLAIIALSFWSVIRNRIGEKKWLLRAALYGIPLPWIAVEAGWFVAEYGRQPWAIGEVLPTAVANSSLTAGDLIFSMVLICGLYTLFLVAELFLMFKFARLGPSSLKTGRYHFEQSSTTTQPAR
T2 sequence (P0ABK2 whole entry, further chain): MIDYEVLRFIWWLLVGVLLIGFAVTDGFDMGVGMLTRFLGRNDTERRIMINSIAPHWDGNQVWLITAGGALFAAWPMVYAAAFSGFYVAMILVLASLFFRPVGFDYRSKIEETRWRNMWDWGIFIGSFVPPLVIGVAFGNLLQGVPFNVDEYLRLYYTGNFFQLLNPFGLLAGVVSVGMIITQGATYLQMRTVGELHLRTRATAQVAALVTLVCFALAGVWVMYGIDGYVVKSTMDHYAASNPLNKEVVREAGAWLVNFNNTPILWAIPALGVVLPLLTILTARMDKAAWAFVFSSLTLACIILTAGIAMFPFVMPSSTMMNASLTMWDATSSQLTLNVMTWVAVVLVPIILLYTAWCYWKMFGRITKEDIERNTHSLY
T2 sequence (P56100 whole entry, further chain): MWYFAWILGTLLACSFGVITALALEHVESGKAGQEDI
Excerpt: as §1, §2
Dose response curves were created to rank the compounds due to their inhibition potency. Inhibitors were titrated in presence of 30nM bd-I. From Clark-type electrode monitored oxygen consumption, resulting oxygen reduction activity with 200µM Q1, reduced with 2mM DTT, was calculated as turnover in e^-/s. Turnover values were normalized, followed by a curve fitting with DoseResp Fit (1) in Origin LabPro9.5 (Additive GmbH, Germany). Data points are mean of minimum three independent measurements ± S.E.M.

cytochrome bd-II = molecular target: T3, cytochrome bd-II (Escherichia coli, UniProt P26459); assay: Oxygen reductase activity assay (Clark-type electrode) with purified cytochrome bd-II; assay type: biochemical, E. coli; conditions: compound 250 µM, 200 µM ubiquinone-1, 5 mM dithiothreitol, 120 nM enzyme, RT, 100% = DMSO, mean ± S.E.M. (n=3); for remaining activity at 250 µM: read-out: Rest activity in % of control activity bd-II
T3 construct: made in house; host or cells: E. coli C43 (DE3) Δ bo3 (CLY)
T3 sequence (P26459 whole entry): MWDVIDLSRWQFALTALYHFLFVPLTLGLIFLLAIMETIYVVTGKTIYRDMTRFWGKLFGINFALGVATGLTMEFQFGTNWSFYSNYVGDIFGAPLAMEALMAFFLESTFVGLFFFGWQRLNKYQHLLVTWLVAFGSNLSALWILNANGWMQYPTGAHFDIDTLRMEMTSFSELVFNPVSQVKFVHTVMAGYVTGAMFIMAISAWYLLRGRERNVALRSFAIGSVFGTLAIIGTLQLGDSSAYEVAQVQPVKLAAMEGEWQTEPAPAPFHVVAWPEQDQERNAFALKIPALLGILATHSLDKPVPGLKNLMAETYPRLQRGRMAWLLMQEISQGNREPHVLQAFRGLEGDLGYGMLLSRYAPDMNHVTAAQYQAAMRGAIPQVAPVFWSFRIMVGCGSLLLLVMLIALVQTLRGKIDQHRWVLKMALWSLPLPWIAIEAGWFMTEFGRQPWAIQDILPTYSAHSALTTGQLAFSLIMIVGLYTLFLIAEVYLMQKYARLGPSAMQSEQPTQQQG
T3 sequence (P24244 whole entry, further chain): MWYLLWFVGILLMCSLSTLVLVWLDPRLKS
T3 sequence (P26458 whole entry, further chain): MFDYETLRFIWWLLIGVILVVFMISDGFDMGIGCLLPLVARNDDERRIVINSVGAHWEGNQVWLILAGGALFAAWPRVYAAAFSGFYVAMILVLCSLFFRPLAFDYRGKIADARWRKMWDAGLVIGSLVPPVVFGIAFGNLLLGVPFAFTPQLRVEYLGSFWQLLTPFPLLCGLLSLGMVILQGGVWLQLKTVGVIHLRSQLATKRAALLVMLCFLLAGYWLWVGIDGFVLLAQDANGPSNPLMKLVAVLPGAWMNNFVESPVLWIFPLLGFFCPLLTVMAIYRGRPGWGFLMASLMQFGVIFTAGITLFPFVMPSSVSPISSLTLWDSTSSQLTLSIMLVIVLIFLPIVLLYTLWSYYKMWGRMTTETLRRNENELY
Excerpt: as §1, §2

cytochrome bo3 [2] = molecular target: T1, cytochrome bo3; conditions: values in brackets, determined spectrophotometrically; read-out: Ki^app bo3 (previous data) (converted); cited from earlier work
cytochrome bd = molecular target: cytochrome bd; parameters: method as in PMID 9880809; conditions: values in brackets, determined spectrophotometrically; read-out: Ki^app bd-I (previous data) (converted); cited from earlier work
[3] = system: cytochrome bc1 complex (complex III) from beef heart mitochondria; parameters: method as in PMID 8206232; conditions: isolated complex III; cited from earlier work
B. subtilis = system: B. subtilis; parameters: method as in PMID 3106289; conditions: cited from earlier work
[4] = system: human U-2 OS osteosarcoma cells; parameters: method as in PMID 23946854; conditions: upon treatment; cited from earlier work
[5] = system: multidrug efflux transporter deficient TolC strain of Escherichia coli; conditions: cited from earlier work

Compound | remaining activity at 250 µM (cytochrome bo3 [1]) | remaining activity at 250 µM (cytochrome bd-I) | remaining activity at 250 µM (cytochrome bd-II) | other results
2-(2-Heptyl)-3-methyl-4(1H)-quinolone [AD7-1] |  |  |  | Rest activity in % of control activity bo3 (cytochrome bo3 [1]): 63.6 ± 1.3%; Rest activity in % of control activity bo3 (cytochrome bo3 [1]; listed as AD7-1*): 47.0 ± 1.9%; Rest activity in % of control activity bd-I (cytochrome bd-I): 4.90 ± 1.5%; Rest activity in % of control activity bd-I (cytochrome bd-I; listed as AD7-1*): 3.46 ± 0.17%; Rest activity in % of control activity bd-II (cytochrome bd-II): 1.18 ± 0.12%; Rest activity in % of control activity bd-II (cytochrome bd-II; listed as AD7-1*): 1.71 ± 0.48%
CCCCCCCCCCc1c(C)c(=O)c2ccccc2n1O [AC1-10] | 0.626 ± 0.08% | 1.39 ± 0.19% |  | Ki (cytochrome bd-I): 82 ± 11 nM; Ki (cytochrome bo3 [2]): 13 nM; Ki (cytochrome bd): 280 nM
CCCCCCCCCCCc1c(CC)c(=O)c2ccccc2n1O [AC2-11] | 0.445 ± 0.08% | 1.09 ± 0.09% | 0.73 ± 0.21% | Ki (cytochrome bo3 [1]): 31 ± 6 nM; Ki (cytochrome bd-I): 34 ± 6 nM; Ki (cytochrome bo3 [2]): 46 nM; Ki (cytochrome bd): 440 nM
CCCCCCCCCCCc1c(CCCC)c(=O)c2ccccc2n1O [AC4-11] | 0.863 ± 0.29% | 1.19 ± 0.42% | 2.14 ± 0.35% | Ki (cytochrome bd-I): 106 ± 13 nM; Ki (cytochrome bo3 [2]): 144 nM; Ki (cytochrome bd): 340 nM
CCCCCCCCCCCc1cc(=O)c2ccccc2[nH]1 [AD0-11] | 23% | > 30% | 8.4 ± 0.36% | Rest activity in % of control activity bo3 (cytochrome bo3 [1]): 23.3 ± 2.3%
CCCCCCCCCCCc1[nH]c2ccccc2c(=O)c1CCC [AD3-11] | 47.1 ± 7% | 0.453 ± 0.28% | 1.45 ± 0.18% | inhibition at 250 µM (cytochrome bo3 [1]; at 250 µM, read-out: inhibitory effect on cytochrome bo3): ~50%; Ki (cytochrome bo3 [1]): > 100000 nM; fold higher inhibitory potential compared to AD0-11 (cytochrome bd-I; cytochrome bd-I): 188 fold; ratio Ki^app-bo3 vs. Ki^app-bd-I (cytochrome bd-I; selectivity bd-I over bo3): around 300
CCCCc1c(C)[nH]c2ccccc2c1=O [AD4-1] | 69.7 ± 4.3% | 5.8 ± 0.39% | 1.33 ± 0.26% | 
CCCCCc1c(C)[nH]c2ccccc2c1=O [AD5-1] | 70.4 ± 1.5% | 4 ± 0.13% | 1.85 ± 0.18% | 
O=c1c2c([nH]c3ccccc13)CCCCC2 [AD5-cyclo] | 70.5 ± 2.6% | < 10% |  | Rest activity in % of control activity bd-I (cytochrome bd-I): 5.67 ± 1.14%; Rest activity in % of control activity bd-II (cytochrome bd-II): 1.51 ± 0.15%
CCCCCCc1c(C)[nH]c2ccccc2c1=O [AD6-1] | 73.2 ± 1.7% | 3.45 ± 0.19% | 1.3 ± 0.17% | 
CCCCCCCc1c(CC)[nH]c2ccccc2c1=O [AD7-2] | 33.3 ± 1.4% | 1.89 ± 1.8% | 1.4 ± 0.49% | Ki^app fold lower compared to AD4-1 (cytochrome bd-I; cytochrome bd-I): 45 fold
CCCCCCCCc1c(C)[nH]c2ccccc2c1=O [AD8-1] | 94.6 ± 3.6% | 3.59 ± 0.11% | 1.36 ± 0.21% | increase of Ki^app value compared to AD7-2 (cytochrome bd-I; cytochrome bd-I): sixfold
CCCCCCCCCCCc1cc(=O)c2ccccc2[nH]1 [AD11-0, 2-undecylquinolone] |  |  |  | pIC50 [3]: 6.66
CC(C)=CCC/C(C)=C/CC/C(C)=C/Cc1c(C)n(O)c2ccccc2c1=O [AurC, Aurachin C] |  |  |  | minimum inhibitory concentration (B. subtilis): 0.15 µg/mL (≈ 0.395 µM)
CC(C)=CCC/C(C)=C/CC/C(C)=C/Cc1c(C)[nH]c2ccccc2c1=O [AurD, Aurachin D] | 30% | 3.93 ± 0.64% | 1.62 ± 0.19% | Rest activity in % of control activity bo3 (cytochrome bo3 [1]): 29.9 ± 2.4%; Ki (cytochrome bo3 [1]): > 10000 nM; mitochondrial membrane potential reduced to [4]: 50–80%; antibacterial effect [5]: moderate antibacterial effect; minimum inhibitory concentration (B. subtilis): 0.15 µg/mL (≈ 0.413 µM)
Cc1cc(O)c2ccccc2n1 [Compound 2-MQ, 2-methyl-4-quinolinol, reference compound] | 64.2 ± 2.6% | > 30% | 17.8 ± 0.55% | 
COc1ccc2[nH]c3c(c(=O)c2c1)CCCC3 [Compound 7-MTHA, 7-methoxy-1,3,4,10-tetrahydro-9(2H)-acridinone, reference compound] | 69.3 ± 1.7% | 35.7 ± 5.7% | 9.6 ± 0.16% | 
CCCCCCCc1cc(O)c2ccccc2[n+]1[O-] [HQNO, 2-heptyl-4-quinolinol 1-oxide, reference compound] | 4.53 ± 0.58% | 7.29 ± 0.45% | 6.44 ± 1.3% | Ki (cytochrome bo3 [1]): 2600 ± 400 nM; Ki (cytochrome bd-I): 3600 ± 500 nM

From publication PMC8668966, “Short-chain aurachin D derivatives are selective inhibitors of E. coli cytochrome bd-I and bd-II oxidases” (Scientific Reports, 2021)
